Source: US12605358B2, “Composition for preventing or treating nervous system diseases comprising compound that inhibits mTOR signaling pathway as active ingredient” (ALIAD BIOPHARMA, priority 2021, dated 2026)

Experiments:
mTORC1 = target: T1, mTORC1 (Homo sapiens, UniProt P42345); experiment: mTORC1 inhibition, immunoblot of S6K Thr389 phosphorylation in HeLa cells; format: cell-based; settings: at 40 µM, FIG. 2A
T1 construct: endogenous in cells; host or cells: HeLa
Protocol: (§1) HeLa cells were cultured in DMEM (Dulbesco's Modified Eagles Media) containing 10% FBS, penicillin (100 units/ml), and streptomycin (100 μg/ml) at 37° C. in a 5% CO2 incubator. Culture was started by seeding 4×10^5 cells in a 100 mm culture dish, and subcultured every 3 days.
(§2) Immunoblot analysis was performed by the following method. SDS-PAGE-developed proteins were electroblotted and transferred and a PVDF membrane was blocked by shaking for 1 hour in a TBS-T buffer (20 mM Tris, 137 mM NaCl, 0.1% Tween 20) containing 5% skim milk. The membrane was repeatedly washed with a TBS-T buffer three times for 5 minutes, and reacted with a first antibody diluted in a TBS-T buffer containing 5% skim milk or 5% BSA overnight at 4° C. Thereafter, the membrane was repeatedly washed with a TBS-T buffer three times for 5 minutes, and reacted with a second antibody diluted in a TBS-T buffer containing 5% skim milk for 30 minutes at room temperature. The membrane was repeatedly washed with a TBS-T buffer containing 5% skim milk five times for 5 minutes, and then protein bands bound to the second antibody were detected by a chemiluminescence method. […]

mTORC2 = target: T2, mTORC2 (Homo sapiens, UniProt P42345); experiment: mTORC2 inhibition, immunoblot of AKT Ser473 phosphorylation in HeLa cells; format: cell-based; settings: at 40 µM, FIG. 2A
T2 construct: endogenous in cells; host or cells: HeLa
Protocol: as §1, §2

[1] = test system: primary cultured hippocampal neurons; experiment: LC3-eGFP puncta formation assay (autophagy promotion); format: cell-based, rat; settings: rapamycin and HN-1703 at 0.1 μM and 0.5 μM respectively, 12 hours; FIG. 3A
Protocol: Primary neurons culture was performed from the hippocampus of rat (SD, Orient Bio) embryonic 16-day (E16) embryos. The left and right hemispheres of the extracted brain were separated using sterile tweezers under a dissecting microscope, the meninges were peeled off, the hippocampus was cut with No. 55 tweezers, and neural progenitor cells were mechanically dissolved in a Ca^2+/Mg^2+-free HBSS (Invitrogen) solution by pipetting with a pasteur pipette (Falcon, 354647). Undissolved tissues or vascular cells were settled, and then a supernatant was taken to measure the cell number and the isolated cells were seeded at 19,000 cells/cm^2 in a 35 mm culture dish coated with poly-L-ornithine (sigma, P3655) and fibronectin (sigma, F4759). The cells were cultured using a serum-free N2 medium (growth medium) added with 10 ng/mL bFGF (Invitrogen) in a 5% CO2 incubator, and the culture medium was replaced after 6 hours and after 24 hours. After 2 days, when the cells proliferated twice or more, subculture was performed.
After 3 days of the primary neural progenitor cell culture, a process of subculturing with 0.05% trypsin was repeated twice, and DNA electroporation or transfection was performed before seeding. […]
The number of cell nuclei labeled with DAPI and the number of cells expressing green fluorescence by overlapping LC3-eGFP expression and DAPI labeling were measured. The number of eGFP-LC3 puncta was measured per cell, and the signal intensity of puncta was measured using a confocal laser microscope program. […]
The autophagy promoting effect of HN-1703 in neurons differentiated by culturing hippocampal neural progenitor cells from rat embryos (E16) was evaluated by performing an LC3-eGFP puncta formation assay. The neural progenitor cells into which an LC3-eGFP recombinant gene was introduced by electroporation were differentiated into neurons, treated with rapamycin and HN-1703 at concentrations of 0.1 μM and 0.5 μM for 12 hours, respectively, and the puncta of LC3-GFP were scanned with a confocal laser microscope (Zeiss, LSM800) to measure the fluorescence intensity of LC3-eGFP and the number of puncta, and the results were illustrated in FIG. 3. Specifically, FIG. 3A illustrates confocal scanning micrographs of LC3-eGFP puncta formation after treated primary cultured hippocampal neurons overexpressing an LC3-eGFP fusion protein with HN-1703, and quantifying the number and fluorescence intensity of LC3-eGFP puncta per cell, and FIG. 3B illustrates a result of LC3-II turnover analysis.

For `COc1cc(OC)c2c(=O)c3cc4c(cc3oc2c1)OCO4` [HN-1703, 7,9-dimethoxy-10H-[1,3]dioxolo[4,5-b]xanthen-10-one], the “inhibition of mTORC1 activity (S6K Thr389 phosphorylation) compared to the control group” value (mTORC1) was 48%, the “inhibition of mTORC2 activity (AKT Ser473 phosphorylation) compared to the control group” value (mTORC2) was 55% and the “increase of the number of LC3-eGFP puncta compared to a control group” value [1] was ≥ 85%. For the same molecule, the “increase of the signal intensity of LC3-eGFP puncta compared to the control group” value [1] was ≥ 45%.
